Assay: xn = mol fraction of the nth substance listed
Conditions: for surface tension liquid-gas: Drop volume; for viscosity / mass density: 100 kPa, Liquid; for viscosity: Concentric cylinders viscometry; for mass density: Vibrating tube method

CC1CCCCC1 [methylcyclohexane] + CC(C)CC(C)(C)C
Conditions | mass density [kg/m3] | surface tension liquid-gas [mN/m] | viscosity [mPa·s]
293.15 K, x1 = 0.0999 | – | 19.34 | –
293.15 K, x1 = 0.1012 | 698.32 | – | 0.532
293.15 K, x1 = 0.1999 | – | 19.77 | –
293.15 K, x1 = 0.2003 | 704.87 | – | 0.546
293.15 K, x1 = 0.2997 | – | 20.13 | –
293.15 K, x1 = 0.3001 | 711.73 | – | 0.562
293.15 K, x1 = 0.4 | – | 20.54 | –
293.15 K, x1 = 0.4019 | 719.01 | – | 0.58
293.15 K, x1 = 0.5 | – | 20.99 | –
293.15 K, x1 = 0.5008 | 726.4 | – | 0.599
293.15 K, x1 = 0.6 | 734.15 | 21.52 | 0.62
293.15 K, x1 = 0.6998 | 742.32 | – | 0.644
293.15 K, x1 = 0.7001 | – | 22.1 | –
293.15 K, x1 = 0.7999 | – | 22.64 | –
293.15 K, x1 = 0.8 | 750.91 | – | 0.671
293.15 K, x1 = 0.9 | 759.88 | 23.29 | 0.701
293.15 K, x1 = 1 | 769.35 | 23.87 | 0.735
298.15 K, x1 = 0.0999 | – | 18.75 | –
298.15 K, x1 = 0.1012 | 694.22 | – | 0.506
298.15 K, x1 = 0.1999 | – | 19.1 | –
298.15 K, x1 = 0.2003 | 700.73 | – | 0.519
298.15 K, x1 = 0.2997 | – | 19.44 | –
298.15 K, x1 = 0.3001 | 707.58 | – | 0.533
298.15 K, x1 = 0.4 | – | 19.84 | –
298.15 K, x1 = 0.4019 | 714.85 | – | 0.549
298.15 K, x1 = 0.5 | – | 20.2 | –
298.15 K, x1 = 0.5008 | 722.23 | – | 0.566
298.15 K, x1 = 0.6 | 729.96 | 20.69 | 0.585
298.15 K, x1 = 0.6998 | 738.11 | – | 0.606
298.15 K, x1 = 0.7001 | – | 21.26 | –
298.15 K, x1 = 0.7999 | – | 21.81 | –
298.15 K, x1 = 0.8 | 746.67 | – | 0.631
298.15 K, x1 = 0.9 | 755.61 | 22.41 | 0.66
298.15 K, x1 = 1 | 765.05 | 23.02 | 0.692
303.15 K, x1 = 0.0999 | – | 18.32 | –
303.15 K, x1 = 0.1012 | 690.06 | – | 0.482
303.15 K, x1 = 0.1999 | – | 18.62 | –
303.15 K, x1 = 0.2003 | 696.57 | – | 0.494
303.15 K, x1 = 0.2997 | – | 18.99 | –
303.15 K, x1 = 0.3001 | 703.4 | – | 0.507
303.15 K, x1 = 0.4 | – | 19.38 | –
303.15 K, x1 = 0.4019 | 710.66 | – | 0.521
303.15 K, x1 = 0.5 | – | 19.73 | –
303.15 K, x1 = 0.5008 | 718.01 | – | 0.537
303.15 K, x1 = 0.6 | 725.72 | 20.21 | 0.554
303.15 K, x1 = 0.6998 | 733.85 | – | 0.573
303.15 K, x1 = 0.7001 | – | 20.72 | –
303.15 K, x1 = 0.7999 | – | 21.32 | –
303.15 K, x1 = 0.8 | 742.38 | – | 0.595
303.15 K, x1 = 0.9 | 751.3 | 21.92 | 0.621
303.15 K, x1 = 1 | 760.71 | 22.55 | 0.651
308.15 K, x1 = 0.0999 | – | 17.84 | –
308.15 K, x1 = 0.1012 | 685.89 | – | 0.46
308.15 K, x1 = 0.1999 | – | 18.12 | –
308.15 K, x1 = 0.2003 | 692.38 | – | 0.471
308.15 K, x1 = 0.2997 | – | 18.43 | –
308.15 K, x1 = 0.3001 | 699.2 | – | 0.483
308.15 K, x1 = 0.4 | – | 18.8 | –
308.15 K, x1 = 0.4019 | 706.44 | – | 0.496
308.15 K, x1 = 0.5 | – | 19.19 | –
308.15 K, x1 = 0.5008 | 713.78 | – | 0.51
308.15 K, x1 = 0.6 | 721.47 | 19.64 | 0.525
308.15 K, x1 = 0.6998 | 729.57 | – | 0.543
308.15 K, x1 = 0.7001 | – | 20.23 | –
308.15 K, x1 = 0.7999 | – | 20.75 | –
308.15 K, x1 = 0.8 | 738.08 | – | 0.564
308.15 K, x1 = 0.9 | 746.98 | 21.44 | 0.587
308.15 K, x1 = 1 | 756.37 | 22.12 | 0.615
313.15 K, x1 = 0.1012 | 681.69 | – | 0.44
313.15 K, x1 = 0.2003 | 688.17 | – | 0.45
313.15 K, x1 = 0.3001 | 694.97 | – | 0.461
313.15 K, x1 = 0.4019 | 702.2 | – | 0.473
313.15 K, x1 = 0.5008 | 709.52 | – | 0.486
313.15 K, x1 = 0.6 | 717.19 | – | 0.5
313.15 K, x1 = 0.6998 | 725.27 | – | 0.516
313.15 K, x1 = 0.8 | 733.75 | – | 0.535
313.15 K, x1 = 0.9 | 742.63 | – | 0.556
313.15 K, x1 = 1 | 752 | – | 0.58
318.15 K, x1 = 0.1012 | 677.34 | – | 0.422
318.15 K, x1 = 0.2003 | 683.85 | – | 0.432
318.15 K, x1 = 0.3001 | 690.64 | – | 0.443
318.15 K, x1 = 0.4019 | 697.75 | – | 0.453
318.15 K, x1 = 0.5008 | 705.13 | – | 0.465
318.15 K, x1 = 0.6 | 712.85 | – | 0.478
318.15 K, x1 = 0.6998 | 720.93 | – | 0.493
318.15 K, x1 = 0.8 | 729.36 | – | 0.509
318.15 K, x1 = 0.9 | 738.24 | – | 0.528
318.15 K, x1 = 1 | 747.58 | – | 0.549
323.15 K, x1 = 0.1012 | 673.08 | – | 0.406
323.15 K, x1 = 0.2003 | 679.58 | – | 0.415
323.15 K, x1 = 0.3001 | 686.35 | – | 0.426
323.15 K, x1 = 0.4019 | 693.44 | – | 0.435
323.15 K, x1 = 0.5008 | 700.81 | – | 0.446
323.15 K, x1 = 0.6 | 708.52 | – | 0.458
323.15 K, x1 = 0.6998 | 716.59 | – | 0.471
323.15 K, x1 = 0.8 | 725.08 | – | 0.486
323.15 K, x1 = 0.9 | 733.86 | – | 0.503
323.15 K, x1 = 1 | 743.17 | – | 0.522
333.15 K, x1 = 0.1012 | 664.46 | – | 0.378
333.15 K, x1 = 0.2003 | 670.92 | – | 0.386
333.15 K, x1 = 0.3001 | 677.66 | – | 0.395
333.15 K, x1 = 0.4019 | 684.72 | – | 0.402
333.15 K, x1 = 0.5008 | 692.07 | – | 0.411
333.15 K, x1 = 0.6 | 699.74 | – | 0.421
333.15 K, x1 = 0.6998 | 707.79 | – | 0.433
333.15 K, x1 = 0.8 | 716.25 | – | 0.445
333.15 K, x1 = 0.9 | 725.03 | – | 0.46
333.15 K, x1 = 1 | 734.29 | – | 0.476
343.15 K, x1 = 0.1012 | 655.69 | – | 0.355
343.15 K, x1 = 0.2003 | 662.12 | – | 0.361
343.15 K, x1 = 0.3001 | 668.84 | – | 0.368
343.15 K, x1 = 0.4019 | 675.87 | – | 0.375
343.15 K, x1 = 0.5008 | 683.23 | – | 0.383
343.15 K, x1 = 0.6 | 690.9 | – | 0.391
343.15 K, x1 = 0.6998 | 698.9 | – | 0.401
343.15 K, x1 = 0.8 | 707.33 | – | 0.411
343.15 K, x1 = 0.9 | 716.08 | – | 0.424
343.15 K, x1 = 1 | 725.31 | – | 0.439

— the NIST ThermoML archive (doi:10.1021/acs.jced.5b00105)
